Test results taken from PMC12519771 (BMC Cancer, 2025).

Columns and labels:
[1] = Adverse events (CTCAE v5.0), safety analysis set
Protocol: Adverse events were recorded continuously until 30 (± 7) days after discontinuation of study treatment and graded using the National Cancer Institute Common Terminology Criteria for Adverse Events v5.0.

[2] = human, in vivo, po, 480 mg
From the text: After completion of Part A, patients continued to Part B of the study. […] Treatment with paclitaxel continued for at least six cycles unless the patient experienced unacceptable paclitaxel-related toxicity or disease progression.
For patients with dose interruption in Cycle 2 before Week 2 Day 5, sample collection could be postponed to Week 2 Day 5 of the subsequent or later cycle, providing there was no dose interruption before Week 2 Day 5 of that cycle.

[3] = cited from earlier work
[4] = related to capivasertib only per investigator, N = 16
[5] = oral administration, Western and Japanese patients

## CC(=O)O[C@H]1C(=O)[C@@]2(C)[C@H]([C@H](OC(=O)c3ccccc3)[C@]3(O)C[C@H](OC(=O)[C@H](O)[C@@H](NC(=O)c4ccccc4)c4ccccc4)C(C)=C1C3(C)C)[C@]1(OC(C)=O)CO[C@@H]1C[C@@H]2O [paclitaxel]
[1]; human, in vivo
  patients with adverse events leading to dose interruptions of paclitaxel: 75.0%
  patients with adverse events leading to dose reductions of paclitaxel: 31.3%

## NC1(C(=O)N[C@@H](CCO)c2ccc(Cl)cc2)CCN(c2nc[nH]c3nccc2-3)CC1 [Capivasertib, capivasertib]
[2]
  AUC(0–12), gMean gCV %: 5630 62.2 h×ng/mL
  AUC(0–48), gMean gCV %: 7244 58.8 h×ng/mL
  AUCinf, gMean gCV %: 7397 58.7 h×ng/mL
  CL/F, gMean gCV %: 64.9 L/h
  tmax, median (range): 1.0 h
[1]; N = 16
  patients with adverse events leading to dose interruptions of capivasertib: 87.5%
  patients with adverse events leading to dose reductions of capivasertib: 31.3%
[1]; [4]
  Anaemia, Grade ≥3: 0 n (%)
  Anaemia, any grade: 4 (25.0) n (%)
  Any adverse event, Grade ≥3: 9 (56.3) n (%)
  Any adverse event, any grade: 16 (100.0) n (%)
  Aspartate aminotransferase increased, Grade ≥3: 0 n (%)
  Aspartate aminotransferase increased, any grade: 1 (6.3) n (%)
  Blood albumin decreased, Grade ≥3: 0 n (%)
  Blood albumin decreased, any grade: 1 (6.3) n (%)
  Blood bilirubin increased, Grade ≥3: 0 n (%)
  Blood bilirubin increased, any grade: 2 (12.5) n (%)
  Blood creatinine increased, Grade ≥3: 0 n (%)
  Blood creatinine increased, any grade: 2 (12.5) n (%)
  Blood triglycerides increased, Grade ≥3: 0 n (%)
  Blood triglycerides increased, any grade: 0 n (%)
  Blood uric acid increased, Grade ≥3: 0 n (%)
  Blood uric acid increased, any grade: 1 (6.3) n (%)
  Diarrhoea, Grade ≥3: 0 n (%)
  Diarrhoea, any grade: 11 (68.8) n (%)
  Glycosylated haemoglobin increased, Grade ≥3: 0 n (%)
  Glycosylated haemoglobin increased, any grade: 0 n (%)
  Hyperglycaemia, Grade ≥3: 2 (12.5) n (%)
  Hyperglycaemia, any grade: 15 (93.8) n (%)
  Hypoalbuminaemia, Grade ≥3: 0 n (%)
  Hypoalbuminaemia, any grade: 4 (25.0) n (%)
  Hypocalcaemia, Grade ≥3: 0 n (%)
  Hypocalcaemia, any grade: 1 (6.3) n (%)
  Hypokalaemia, Grade ≥3: 0 n (%)
  Hypokalaemia, any grade: 1 (6.3) n (%)
  Hypomagnesaemia, Grade ≥3: 0 n (%)
  Hypomagnesaemia, any grade: 4 (25.0) n (%)
  Hyponatraemia, Grade ≥3: 0 n (%)
  Hyponatraemia, any grade: 5 (31.3) n (%)
  Hypophosphataemia, Grade ≥3: 0 n (%)
  Hypophosphataemia, any grade: 0 n (%)
  Nausea, Grade ≥3: 0 n (%)
  Nausea, any grade: 2 (12.5) n (%)
  Neutrophil count decreased, Grade ≥3: 0 n (%)
  Neutrophil count decreased, any grade: 1 (6.3) n (%)
  Oedema peripheral, Grade ≥3: 0 n (%)
  Oedema peripheral, any grade: 1 (6.3) n (%)
  Peripheral sensory neuropathy, Grade ≥3: 0 n (%)
  Peripheral sensory neuropathy, any grade: 0 n (%)
  Platelet count decreased, Grade ≥3: 0 n (%)
  Platelet count decreased, any grade: 1 (6.3) n (%)
  Proteinuria, Grade ≥3: 0 n (%)
  Proteinuria, any grade: 5 (31.3) n (%)
  Pyrexia, Grade ≥3: 0 n (%)
  Pyrexia, any grade: 6 (37.5) n (%)
  Rash (group term), Grade ≥3: 5 (31.3) n (%)
  Rash (group term), any grade: 10 (62.5) n (%)
  Stomatitis, Grade ≥3: 0 n (%)
  Stomatitis, any grade: 1 (6.3) n (%)
  Vomiting, Grade ≥3: 0 n (%)
  Vomiting, any grade: 1 (6.3) n (%)
  Weight decreased, Grade ≥3: 0 n (%)
  Weight decreased, any grade: 0 n (%)
  White blood cell count decreased, Grade ≥3: 1 (6.3) n (%)
  White blood cell count decreased, any grade: 2 (12.5) n (%)
[3]; doses ranging from 80 mg to 800 mg
  dose proportionality of plasma exposure (AUC over the dosing interval and Cmax): approximately dose-proportional
[3]; [5]
  median tmax: 1 to 2 h
  terminal elimination half-life (t½λz): approximately 10 h
